Assay results reported in article PMC9862759 (Viruses, 2023).
Values joined by “and” are separate entries in the source; they are usually repeats but may differ in a detail not shown here. Identical values can stand only once. Like-named read-outs stand apart in the source and are kept apart here.

Experiments:
[1] = tested on: HEK 293 cells; assay: MTT cytotoxicity on human normal cell line HEK 293 (24 h); format: cell-based; conditions: Homo sapiens, HEK293, 24 h, read-out: IC50 Values of Human Normal Cell Lines, HEK 293
[2] = tested on: SARS-CoV-2 pseudovirus; assay: microbe, parasite or virus in culture; conditions: Severe acute respiratory syndrome-related coronavirus, read-out: IC50 (inhibition of pseudovirus entry into host cells)
[3] = tested on: LO2 cells; assay: MTT cytotoxicity on human normal cell line LO2 (24 h); format: cell-based; conditions: Homo sapiens, L02, 24 h, read-out: IC50 Values of Human Normal Cell Lines, LO2
[4] = tested on: SARS-CoV-2 pseudovirus; conditions: for IC50: read-out: IC50 (inhibition of pseudovirus entry into host cells)
[5] = tested on: HEK-293T-ACE2^h cells; assay: MTT cytotoxicity assay on host cells (4 h); format: cell-based, human; conditions: MTT, 4 h
[6] = tested on: Beas-2B cells; assay: MTT cytotoxicity on human normal cell line Beas-2B (24 h); format: cell-based; conditions: Homo sapiens, BEAS-2B, 24 h, read-out: IC50 Values of Human Normal Cell Lines, Beas-2B

Compound	IC50 [1] [µM]	IC50 [2] [µM]	IC50 [3] [µM]	SI (ratio of TC50 to IC50) [4]	CC0 (maximum nontoxic concentration) [5] [µM]	TC50 (concentration reducing cell viability by 50%) [5]	IC50 [6] [µM]	IC50 [4] [µM]
Oc1cc(O)c2c(c1)OC(c1ccc(O)c(O)c1)C(O)C2 (racemic) [compound 21, (±)-Catechin]	> 500	157 ± 12	> 500	>3.19	300	>500 µM	> 500	
COc1ccc2cc1Oc1ccc(cc1)C[C@H]1c3c(cc4c(c3Oc3cc5c(cc3OC)CCN(C)[C@@H]5C2)OCO4)CCN1C [Cepharanthine, reference compound]	24.3 ± 0.22	1.3 ± 0.18	16.06 ± 0.13	8.88	6.25	11.54 µM and 11.54 ± 1.39 µM	26.1 ± 1.08	
O=c1cc(-c2ccccc2)oc2cc(O)cc(O)c12 [compound 1, Chrysin]		> 100		<1.69	100	168.50 ± 12.06 µM		
O=c1cc(-c2ccc(O)cc2)oc2cc(O)cc(O)c12 [compound 2, Apigenin]		> 50		<1.82	50	90.88 ± 3.13 µM		
O=c1cc(-c2ccc(O)c(O)c2)oc2cc(O)cc(O)c12 [compound 3, Luteolin]	> 300		183 ± 10.3		200	>300 µM	> 300	
O=c1cc(-c2ccc(O)cc2)oc2c([C@@H]3O[C@H](CO)[C@@H](O)[C@H](O)[C@H]3O)c(O)cc(O)c12 [compound 4, Vitexin]		> 300			300	>500 µM		
O=c1cc(-c2ccc(O)c(O)c2)oc2c([C@@H]3O[C@H](CO)[C@@H](O)[C@H](O)[C@H]3O)c(O)cc(O)c12 [compound 5, Orientin]	> 500	63.7 ± 9.61	> 500	>7.85	300	>500 µM	> 500	
CC1OC(OC2C(c3c(O)cc(O)c4c(=O)cc(-c5ccc(O)cc5)oc34)OC(CO)C(O)C2O)C(O)C(O)C1O (centres unmarked) [compound 6, Vitexin-2″-O-rhamnoside]		> 300			300	>500 µM		
O=c1cc(-c2ccccc2)oc2cc(O)c(O)c(O)c12 [compound 7, Baicalein]	> 500	51 ± 6.48	> 500	>9.80	200	>500 µM	494 ± 9.64	
COc1c(O)cc2oc(-c3ccccc3)cc(=O)c2c1O [compound 8, Oroxylin A]	> 300	< 50	> 300	>8.08	100	>300 µM	> 300	37.1 ± 2.58
O=c1cc(-c2ccc(O)cc2)oc2cc(O)c(O)c(O)c12 [compound 9, Scutellarein]	> 300	< 50	> 300	>10.25	200	>300 µM	> 300	29.3 ± 0.74
O=c1cc(-c2ccccc2)oc2cc(O[C@@H]3O[C@H](CO)[C@@H](O)[C@H](O)[C@H]3O)c(O)c(O)c12 [compound 10, Oroxin A]	258 ± 10.6	84.6 ± 10.8	> 300	>3.55	300	>300 µM	> 300	
O=c1cc(-c2ccccc2)oc2cc(O[C@@H]3O[C@H](CO[C@@H]4O[C@H](CO)[C@@H](O)[C@H](O)[C@H]4O)[C@@H](O)[C@H](O)[C@H]3O)c(O)c(O)c12 [compound 11, Oroxin B]	> 300	129 ± 19	> 300	>2.33	300	>300 µM	> 300	
